# Molecular target: Tissue alpha-L-fucosidase (Bos taurus)
# Experiment: Compound was tested for the inhibitory activity against alpha-L-fucosidase from bovine epididymis
row,SMILES,Ki
1,"CC1SC(Oc2ccc([N+](=O)[O-])cc2)C(O)C(O)C1O [(3R,4S,5S)-2-Methyl-6-(4-nitro-phenoxy)-tetrahydro-thiopyran-3,4,5-triol]",118 µM
2,"CSC1SC(C)C(O)C(O)C1O [(3R,4S,5S)-2-Methyl-6-methylsulfanyl-tetrahydro-thiopyran-3,4,5-triol]",2300 µM
3,"COC1SC(C)C(O)C(O)C1O [(3S,4S,5R)-2-Methoxy-6-methyl-tetrahydro-thiopyran-3,4,5-triol]",690 µM
4,"CC1SC(Sc2ccc([N+](=O)[O-])cc2)C(O)[C@H](O)C1O (stereo partly drawn) [(R)-2-Methyl-6-(4-nitro-phenylsulfanyl)-tetrahydro-thiopyran-3,4,5-triol]",3.3 µM
5,"CC1SC(OP(=O)(O)O)C(O)C(O)C1O [Sodium; Phosphoric acid mono-((3S,4S,5R)-3,4,5-trihydroxy-6-methyl-tetrahydro-thiopyran-2-yl) ester]",406 µM
6,"CC1SC(OP(=O)(O)OCc2ccccc2)C(O)C(O)C1O (stereo unspecified) [Sodium; benzyl 3,4,5-trihydroxy-6-methyltetrahydro-2H-thiopyran-2-yl hydrogen phosphate]",33 µM

# — BindingDB's records for doi:10.1016/0960-894X(96)00356-3 (1996)
